# How the values were obtained:
# ECV304 [1] = test: MTT assay, inhibition of proliferation of ECV304 endothelial cells (72 hours); type: cell-based, human; details: concentration causing 50% cytotoxicity
# Method: 30µl of ECV304 cell suspension (50 x 10^4 cells/ml in RPMI 1640 containing 10% FBS) followed by 150µl of medium was added to the wells of a 96-well tissue culture plate (Nunc, Denmark) and incubated (37°C, 5% CO2) overnight. […] Each concentration was plated in triplicates. 20µl of medium alone was added to control wells. After 72 hours of incubation an MTT assay (Mosmann, 1983) was performed and percentage inhibition in proliferation of treated cells was calculated with respect to control cells.
# HT-29 = test: Cytotoxicity assay for tumor cells, colon HT-29; type: cell-based; details: concentration causing 50% cytotoxicity
# Source text: (§1) The cytotoxicity assays for tumor cells have been described in detail in our application No. 09/040,856 filed in US on March 18, 1998. […] Table - I
# PA-1 = test: Cytotoxicity assay for tumor cells, ovary PA-1; type: cell-based; details: concentration causing 50% cytotoxicity
# Source text: as §1
# L132 = test: Cytotoxicity assay for tumor cells, lung L132; type: cell-based; details: concentration causing 50% cytotoxicity
# Source text: as §1
# DU145 = test: Cytotoxicity assay for tumor cells, prostate DU145; type: cell-based; details: concentration causing 50% cytotoxicity
# Source text: as §1
# ECV304 [2] = test: Tube-like-structure (TLS) formation of ECV304 cells on Matrigel; type: cell-based, human; details: 24 - 48 hours, mean of five fields
# Method: Matrigel (70 µl) was placed into each well of a 96-well culture plate at 4°C and was allowed to polymerize by incubation at 37°C for 30 min. ECV304 (1 x 10^4) cells were seeded on the Matrigel in 200 µl DMEM containing 10% FBS. […] Five different phase-contrast microscopic fields (4X) were viewed and total tube area of the tube-like-structures (TLS) measured using Video Pro 32 Image Analysis system. Percent reduction in total tube area was given as the mean of the data from five fields. Percent inhibition of TLS was calculated with reference to Controls(no drug). Table - III
SMILES,Endothelial ECV304 (ED50) (ECV304 [1]),Colon HT-29 (ED50) (HT-29),Ovary PA-1 (ED50) (PA-1),Lung L132 (ED50) (L132),Prostate DU145 (ED50) (DU145),% reduction in total tube area at concentration 0.5 µg/ml (ECV304 [2]),% reduction in total tube area at concentration 2 µg/ml (ECV304 [2]),% reduction in total tube area at concentration 4 µg/ml (ECV304 [2])
C=C(C)C1CCC2(C(=O)O)CCC3(C)C(CCC4C5(C)CCC(=NNc6ccccc6)C(C)(C)C5CCC43C)C12 (stereo not shown) [MJ353-RS],2.4 µg/mL,> 10 µg/mL,5 µg/mL,4.5 µg/mL,6.5 µg/mL,–,–,–
COc1ccc(NNC2CCC3(C)C(CCC4(C)C3CCC3C5C(C(C)C)CCC5(C(=O)O)CCC34C)C2(C)C)cc1 (stereo not shown) [MJ912-RS],0.4 µg/mL,0.35 µg/mL,–,> 4 µg/mL,8.5 µg/mL,–,–,–
CC(C)C1CCC2(C(=O)O)CCC3(C)C(CCC4C5(C)CCC(OC(=O)c6cc(F)cc(F)c6)C(C)(C)C5CCC43C)C12 (stereo not shown) [MJ935-RS],0.7 µg/mL,> 10 µg/mL,–,1.2 µg/mL,3.2 µg/mL,–,–,–
CC(C)C1CCC2(C(=O)O)CCC3(C)C(CCC4C5(C)CCC(OC(=O)c6ccc(F)cc6F)C(C)(C)C5CCC43C)C12 (stereo not shown) [MJ937-RS],0.7 µg/mL,1.7 µg/mL,1.6 µg/mL,1.1 µg/mL,2.5 µg/mL,16.7%,21%,21.7%
C=C(C)C1CCC2(C(=O)O)CCC3(C)C(CCC4C5(C)CCC(OC(=O)c6cccc(C(F)(F)F)c6)C(C)(C)C5CCC43C)C12 (stereo not shown) [MJ939-RS],0.9 µg/mL,> 10 µg/mL,> 4 µg/mL,2.7 µg/mL,> 10 µg/mL,–,–,–
CC(C)C1CCC2(C(=O)O)CCC3(C)C(CCC4C5(C)CCC(OC(=O)c6ccccc6C(F)(F)F)C(C)(C)C5CCC43C)C12 (stereo not shown) [MJ943-RS],2.6 µg/mL,> 10 µg/mL,> 4 µg/mL,4 µg/mL,> 4 µg/mL,–,–,–
CC(C)C1CCC2(C(=O)O)CCC3(C)C(CCC4C5(C)CCC(N=Cc6ccc(F)c(F)c6)C(C)(C)C5CCC43C)C12 (stereo not shown) [MJ998-RS],0.35 µg/mL,4 µg/mL,1.3 µg/mL,2.5 µg/mL,2.2 µg/mL,21.1%,13.4%,33.4%
CC(C)C1CCC2(C(=O)O)CCC3(C)C(CCC4C5(C)CCC(N=Cc6ccc(F)cc6F)C(C)(C)C5CCC43C)C12 (stereo not shown) [MJ1065-RS],2.4 µg/mL,4.9 µg/mL,1.3 µg/mL,3.4 µg/mL,2.5 µg/mL,23.4%,16.7%,46.7%
CC(C)C1CCC2(C(=O)O)CCC3(C)C(CCC4C5(C)CCC(=NOCc6ccc([N+](=O)[O-])cc6)C(C)(C)C5CCC43C)C12 (stereo not shown) [MJ1098-RS],0.6 µg/mL,2.6 µg/mL,1.6 µg/mL,1.3 µg/mL,1.5 µg/mL,15%,7.5%,10%
C=C(C)C1CCC2(C(=O)O)CCC3(C)C(CCC4C5(C)CCC(OC(=O)c6ccc(CCCCC)cc6)C(C)(C)C5CCC43C)C12 (stereo not shown) [MJ1104-RS],1.9 µg/mL,3.5 µg/mL,> 4 µg/mL,5.9 µg/mL,2 µg/mL,–,–,–
C=C(C)C1CCC2(C(=O)O)CCC3(C)C(CCC4C5(C)CCC(OC(=O)Cc6cc(OC)ccc6OC)C(C)(C)C5CCC43C)C12 (stereo not shown) [MJ1108-RS],1.8 µg/mL,> 10 µg/mL,–,4.6 µg/mL,1 µg/mL,–,–,–

# From patent EP1218402B1 (Dabur Research Foundation, priority 1999, dated 2001)
